Reference: patent publication US20100173910A1, “TRIAMINOPYRIMIDINE CYCLOBUTENEDIONE DERIVATIVES USED AS PHOSPHATASE CDC25 INHIBITORS” (IPDRN PHSTMS D.S.S., priority 2007, published 2010)

Assays:
[1] = target: T1, purified recombinant CDC25C enzyme (MBP-CDC25C protein) (Homo sapiens, UniProt P30307); test: Phosphatase activity of the purified recombinant CDC25C enzyme (OMFP dephosphorylation, fluorescence); assay type: biochemical; conditions: OMFP 500 μM, 4 hours at 30° C., three independent experiments; nested upper bounds; read-out: IC50 for the phosphatase activity of the purified recombinant CDC25-C enzyme
T1 construct: made in house
T1 sequence (P30307 1-473): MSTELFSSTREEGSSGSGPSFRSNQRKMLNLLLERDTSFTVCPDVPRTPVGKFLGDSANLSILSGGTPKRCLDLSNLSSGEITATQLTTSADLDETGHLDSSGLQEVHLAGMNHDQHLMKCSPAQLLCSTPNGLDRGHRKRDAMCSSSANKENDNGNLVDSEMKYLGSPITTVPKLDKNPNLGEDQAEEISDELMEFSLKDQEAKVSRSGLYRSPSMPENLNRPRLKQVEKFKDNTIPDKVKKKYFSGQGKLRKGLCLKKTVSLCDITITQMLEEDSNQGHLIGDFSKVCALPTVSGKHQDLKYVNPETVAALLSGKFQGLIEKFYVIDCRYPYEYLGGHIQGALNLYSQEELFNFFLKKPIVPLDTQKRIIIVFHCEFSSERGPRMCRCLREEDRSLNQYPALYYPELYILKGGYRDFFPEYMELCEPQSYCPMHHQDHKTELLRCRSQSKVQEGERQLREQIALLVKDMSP
Description: i) Determination of the Phosphatase Activity of the Purified Recombinant CDC25C Enzyme:
The phosphatase activity of the MBP-CDC25C protein is evaluated through its dephosphorylation of 3-O-methylfluorescein-phosphate (OMFP) to form 3-O-methylfluorescein (OMF), determining the fluorescence of the reaction product at 475 nm. This assay can be used to identify inhibitors of the recombinant CDC25 enzyme. The preparation of the MBP-CDC25C fusion protein is described in the PCT patent application published under the number WO 01/44467.
The reaction is performed in 384-well plates in a final volume of 50 μl. The MBP-CDC25C protein (prepared as described hereinabove) is stored in the following elution buffer: 20 mM Tris-HCl pH 7.4; 250 mM NaCl; 1 mM EDTA; 1 mM dithiothreitol (DTT); 10 mM maltose. It is diluted to a concentration of 60 μM in the following reaction buffer: 50 mM Tris-HCl pH 8.2; 50 mM NaCl; 1 mM DTT; 20% glycerol. The background noise is determined using with the buffer without adding the enzyme. The products are tested at decreasing concentrations from 40 μM. The reaction is initiated by the addition of OMFP solution to a final concentration of 500 μM (prepared immediately before use from a 12.5 mM stock solution in 100% DMSO (Sigma #M2629)). After 4 hours at 30° C. in a disposable 384-well plate, the fluorescence measured at OD 475 nm is read on a Victor^2 plate reader (EGG-Wallac). The concentration that produces 50% inhibition of the enzyme reaction is calculated from three independent experiments. Only the values that fall within the linear part of the sigmoid curve are used for the linear regression analysis.

[2] = system: MIA PaCa-2 (human pancreatic carcinoma cells); test: Anti-proliferative activity, MIA PaCa-2 cells (WST1 colorimetric test); assay type: cell-based; conditions: MIA PaCa-2, 96 h, 96 hours treatment, up to 10 μM, nested upper bounds, read-out: IC50 for proliferation of the MIA PaCa-2 cell lines
Description: (§1) ii) Characterisation of Anti-Proliferative Activity:
(§2) By way of an example, the effect of treating two human cell lines MIA PaCa-2 and DU 145 with the compounds of the examples described hereinbefore will be studied. The cell lines DU 145 (human prostate carcinoma cells) and MIA PaCa-2 (human pancreatic carcinoma cells) were obtained from the American Tissue Culture Collection (Rockville, Md., USA). A 96-well plate was inoculated on day 0 with cells in 80 μl of Dulbecco's modified Eagle's medium (Gibco-Brl, Cergy-Pontoise, France) with 10% heat-inactivated foetal calf serum (Gibco-Brl, Cergy-Pontoise, France), 50,000 units/l of penicillin and 50 mg/l of streptomycin (Gibco-Brl, Cergy-Pontoise, France) and 2 mM of glutamine (Gibco-Brl, Cergy-Pontoise, France). The cells were treated on day 1 for 96 hours with increasing concentrations of each test compound up to 10 μM. At the end of this period, cell proliferation is quantified by means of a colorimetric test based on cleavage of the tetrazolium salt WST1 by the mitochondrial dehydrogenases in the viable cells, resulting in formation of formazan (Boehringer Mannheim, Meylan, France). These tests are performed in duplicate with 8 determinations per concentration tested. For each test compound, the values within the linear part of the sigmoid curve were subjected to linear regression analysis and used to estimate the IC50 inhibitory concentration. The products are solubilised in dimethylsulfoxide (DMSO) at a concentration of 10^−2 M and used in culture with a final DMSO concentration of 0.1%.

[3] = system: DU 145 (human prostate carcinoma cells); test: Anti-proliferative activity, DU 145 cells (WST1 colorimetric test); assay type: cell-based; conditions: DU-145, 96 h, 96 hours treatment, up to 10 μM, nested upper bounds, read-out: IC50 for proliferation of the DU 145 cell lines
Description: as §1, §2

Compound | IC50 [1] [µM] | melting point [°C] | IC50 [2] [µM] | IC50 [3] [µM]
O=c1c(NCCNc2cc(N3CCCC3)nc(N3CCCC3)n2)c(Nc2ccc(F)cc2)c1=O [Example 31, 3-({2-[(2,6-dipyrrolidin-1-ylpyrimidin-4-yl)amino]ethyl}amino)-4-[(4-fluorophenyl)amino]cyclobut-3-ene-1,2-dione] | ≤ 1 | 241 to 243 | ≤ 10 | ≤ 10
N#Cc1ccc(Nc2c(NCCNc3cc(N4CCCC4)nc(N4CCCC4)n3)c(=O)c2=O)cc1 [Example 33, 3-({2-[(2,6-dipyrrolidin-1-ylpyrimidin-4-yl)amino]ethyl}amino)-4-[(4-cyanophenyl)amino]cyclobut-3-ene-1,2-dione] | ≤ 1 | > 250 | ≤ 10 | ≤ 10
